Patent US6518315B1, “Medicinal uses of phenylaikanols and derivatives” (The University of Sydney, priority 1997, dated 2003)
Like-named read-outs stand apart in the source and are kept apart here.

Experiments:
right atrium rat = assay: Cardiovascular and neuro-effector junction activities: right atrium, rat; settings: 3 × 10^−7-3 × 10^−6 M, with propranolol present
Description: (§1) Therefore, further investigation of the physicochemical properties as well as mechanism(s) of action of these substances, including gingerols, is required in relation to cardiotonicity. The mode of action of gingerols as cardiotonic agents has been […] and it was proposed that they act by direct stimulation of the cardiac SR Ca^2+-ATPase. This may load extra calcium into the intracellular stores in the sarcoplasmic reticulum allowing more calcium to be released on stimulation of the heart resulting in increased cardiac contractility. […] The cardiotonic action of 1-(4-hydroxy-3-methoxyphenyl)dodecan-3-ol [3.93] was confirmed from independent studies, carried out at our request as part of our agreement with Johnson & Johnson Research Ltd (J&J), by Prof. James Angus from the University of Melbourne. […] A tachycardial effect of the substance on guinea pig atria was, however, observed at significant rate, 50-60% of isoprenaline Emax and the response was not α- or β-adrenoceptor mediated.
(§2) Cardiovascular and Neuro-effector Junction Activities of Gingerol Analogues

[1] = system: brine shrimp (Artemia salina Leach); assay: Brine shrimp assay; format: in vivo; settings: for LC50: 24 hours, 2% DMSO
Description: Toxicity—Brine Shrimp Assay
The brine shrimp assay procedure determines LC50 values of active compounds. Activities of a broad range of known active compounds are manifested as toxicity to brine shrimp (Artemia salina Leach). There are many applications of the assay including analysis of toxic substances, anaesthetics, morphine-like substances and cocarcinogenicity of phorbol esters.
DMSO (dimethyl sulfoxide) was the solvent of choice because of its good solubilising properties and also because the substances used in the ATPase inhibition assays were already prepared with DMSO.
The method for testing solvent toxicity used was basically that reported by J L McLaughlin in Methods of Plant Biochemistry (1991), vol. 6 (K Hostettman, ed.), Academic Press, London, 1-32. DMSO solutions of the substances to be tested were added directly to the vials containing the brine shrimp. As the concentration of DMSO is that we wished to use was higher than the recommended 1% v/v testing of the toxicity of the DMSO was therefore necessary. The concentrations of DMSO tested on the shrimp, along with the results from the assay which was done in duplicate are listed below.
Brine shrimp toxicity was assayed, except for some minor modifications, according to the method of McLaughlin et al as reported in Brine Shrimp: A convenient bioassay for active plant constituents, B N Meyer, N R Ferrigni, J E Putnam, L B Jacobsen, D E Nichols and J L McLaughlin in Planta Medica (1982), 45, 31-34 and Crown gall tumours on potato discs and brine shrimp lethality: Two simple bioassays for higher plant screening and fractionation. J L McLaughlin. Methods of Plant Biochemistry (1991), vol. 6 (K Hostettman, ed.), Academic Press, London, 1-32. Ten shrimp were transferred to each of the vials and the volume adjusted to 4.9 mL. Each dose was performed in triplicate, including the control. In quick succession, the appropriate volume of additional DMSO for each dose, required to achieve a final concentration of 2%, was added before the appropriate volume of test solution. The vials were gently mixed and the time noted. After 24 hours, the number of survivors were counted and % mortality was determined. The test compounds were assayed at concentrations of 100 μM, 25 μM, 5 μM, 1 μM and 0.2 μM (and where appropriate concentrations of 0.04 μM and 0.008 μM).
The brine shrimp were able to survive without food in the vials over the 24 hour period and were therefore not fed.
The dose-response curves were constructed using the Sigmaplot computer program and the LC50 value was calculated from the intersection point of the curve and the 50% mortality line. The LC50 values were expressed in both μM and μg/mL.
For substances with low toxicity, the greater sign “>” indicated the highest concentration at which the assay was carried out as precipitation of the substances occurred above that concentration.

[2] = system: capsaicin-sensitive DRG neuronal cells; assay: [Ca^2+]i transients in DRG neuronal cells in culture; format: cell-based, rat
Description: Effect of Gingerol Analogues Towards Rat Dorsal Root Ganglia
Capsaicin, the pungent component in peppers of the Capsicum genus, family Solanaceae, has the ability to excite a subset of sensory neurons, which include polymodal nociceptors and warm thermoceptors (Fitzgerald, 1983) by opening non-selective cation channels that are permeable to Na^+, K^+, and Ca^2+ (Bevan and Szolcsanyi, 1990). It has been shown that capsaicin evoked a concentration-dependent rise in [Ca^2+]i in cultured dorsal root ganglion neurons. The duration of the elevation of [Ca^2+]i depended on the concentration of capsaicin (Choleswinski, et al., 1993). In this investigation peak [Ca^2+]i transient measurements are used as a model for testing gingerol analogues.
DRG from neonatal (3-5 days old) rat or adult Sprague-Dawley rats were incubated in Hanks CMF saline with 0.05% collagenase and 0.25% trypsin for 25 min at 37° C. Individual cells were obtained by trituration with fire polished Pasteur pipettes of diminishing diameters. Neurones were isolated from the cell suspension in 30% Percoll and then plated on collagen coated coverslips or in 24-well plates, then cultured in neurobasal medium with B27 supplement, 50 ng/ml 2.5 S nerve growth factor, 2 mM 1-glutamine and 100 U/ml penicillin/streptomycin. Cultures were maintained at 37° C. with 5% CO2. 30% Percoll increases the percentage of capsaicin-sensitive DRG neurones up to 70%. For peak [Ca^2+]i transients measurements, cells on coverslips were incubated with 5 μM Fura-2 AM for 30 min at 37° C. The coverslips were then mounted on a chamber attached to a fast sample application perfusion system which allows changing solutions in the second range. Recordings were made on the stage of a Nikon Diaphot inverted microscope fitted with a Nikon 40×Fluo (NA 0.85) DL Ph3 or 40×Fluo (NA 1.3) oil objective. [Ca^2+]i was calculated from dual excitation wavelength (340/380 nm) fluorescence measurements following an intracellular calibration procedure by the Grynkiewicz equation, using MCID M2/M4 v.3.0 (Imaging Res. Inc.) software. Cells were continuously perfused with a solution consisting of 140 mM NaCl, 2 mM CaCl2, 5 mM KCl, 20 mM HEPES, 10 mM glucose, pH 7.4. To study KCl evoked depolarisation, 50 mM NaCl was replaced by equimolar KCl. Cytoplasmic localisation of Fura-2 was tested with the Mn^2+ quenching technique (Dedov and Roufogalis, 1998). All experiments were performed at room temperature (20-23° C.).
Typical changes in [Ca^2+]i upon depolarisation were evoked by 50 mM KCl and by application of 1 μM capsaicin; both were applied for 30 sec. Capsaicin-evoked peak [Ca^2+]i transients are characterised by a fast rise and long-steady state [Ca^2+]i clearance from the cytoplasm. In capsaicin-sensitive cells the half-time of cytoplasmic Ca^2+ clearance was proportional to the amplitudes of peak [Ca^2+]i transients.
To examine the effect of gingerol derivatives, one or several compounds in succession at a concentration of 10 μM were applied for 1 min to the DRG neuronal cells followed by washing out for 4 min with physiological solution. To the capsaicin-sensitive cells, 10 μM capsaicin and 50 mM KCl were applied, respectively, to confirm the viability of the cells. In addition, morphological appearances of the cells were also examined at the end of experiment. […]

rat mesenteric artery = assay: Vasodilation on rat mesenteric artery
Description: The proposed mechanism of neuropeptide release by 1-(4-hydroxy-3-methoxyphenyl)dodecan-3-ol, similar to that of capsaicin, was supported by studies in blood vessels. […] This contrasts with capsaicin which has similar activity in Guinea pig atria (force and rate) and relaxing rat mesenteric artery.

right atrium guinea pig = assay: Cardiovascular and neuro-effector junction activities: right atrium, guinea pig; settings: 10^−7-3 × 10^−5 M; not blocked by praz., prop.
Description: as §1, §2

guinea pig atria = assay: Organ bath assay, isolated guinea pig atria (rate and force of contraction)
Description: Male guinea pigs, 3-4 weeks old, were killed by rapid cervical dislocation without induced anaesthesia. Then, the guinea pigs were dissected to isolate the atria which were immediately mounted vertically in an organ bath containing Krebs-Henseleit solution oxygenated with carbogen.
One gram tension was applied to the atria and the base line continuously adjusted until it was stable for 20 mins. The rate and force of contraction were recorded using Mac Lab equipment.
Test substances in DMSO were assayed to a maximum concentration of 50 μM at a final concentration of 2.5% of DMSO.

left atrium guinea pig = assay: Cardiovascular and neuro-effector junction activities: left atrium, guinea pig
Description: In later studies positive inotropic activity was observed as a 50% increase on driven guinea pig left atria at 10 μM.
No effect was observed on nerve stimulation in atria.
as §1, §2

[3] = system: rabbit platelet-rich plasma; assay: Antiplatelet aggregation screen with arachidonic acid as substrate; format: cell-based
left atrium rat = assay: Cardiovascular and neuro-effector junction activities: left atrium, rat; settings: 10^−7-3 × 10^−5 M
Description: as §1, §2

diaphragm rat = assay: Cardiovascular and neuro-effector junction activities: diaphragm, rat; settings: 10^−5 M
Description: as §1, §2

cardiac Purkinje fibres = assay: Cardiac electrophysiology on Purkinje fibres; design: species or system dog; settings: up to 10 μM
Description: Cardiac Electrophysiological Activities of Gingerol and its Analogue
The basic cardiac electrophysiological properties were assessed using cardiac Purkinje fibres obtained from adult mongrel dogs.
Electrophysiology was carried out on dog heart purkinje fibre to test for potential arrhythmia. […] At high concentration (50 μM), however, [8]-gingerol reduced approximate 80% and 50% of action potential duration at 50% and 90% repolarisations respectively. Whereas the analogue reduced 75% and 30% respectively.

vas deferens rat = assay: Cardiovascular and neuro-effector junction activities: vas deferens, rat; settings: 10^−4 M
Description: as §1, §2

[4] = system: brine shrimp (Artemia salina Leach); settings: in vivo; cited from earlier work

With `CCCCCCCCCC(O)CCc1ccc(O)c(OC)c1` (stereo not shown) [1-(4-hydroxy-3-methoxyphenyl)dodecan-3-ol] the “effect on rate, right atrium rat” value (right atrium rat) was “tachycardia”, the “toxicity towards brine shrimp, in words” value ([1]; in vivo) was “low toxicity” and the “evoked [Ca^2+]i transients in Ca^2+-free medium or with ruthenium red” value ([2]; Ca^2+-free medium or ruthenium red (1 μM)) was “abolished or greatly diminished”. For the same compound, the “potency (EC50) for relaxation of mesenteric artery relative to inotropic effect in guinea pig atrium” value (rat mesenteric artery) was 100 fold, the “relaxing vasopressin-contracted rat mesenteric small arteries” value (rat mesenteric artery; 10^−8 to 10^−6 M, 200-300 μm diameter) was “very potent” and the “effect on rate, right atrium guinea pig” value (right atrium guinea pig) was “tachycardia”. The “potency of one enantiomer relative to the other in increasing force of contraction in guinea pig atria” value (guinea pig atria) was 100 fold, the “FORCE OF CONTRACT^n, ↑ increase” value (guinea pig atria; @ 10 (μM)) was “↑108% @ 10” and the “arrhythmia on guinea pig driven left atria” value (left atrium guinea pig; 1 μM) was “followed by arrhythmia”. The “inotropic effect, % isopren. max., left atrium guinea pig” value (left atrium guinea pig; 10^−6-3 × 10^−5 M) was “˜20%”, the “inotropism, left atrium guinea pig” value (left atrium guinea pig; 10^−6-3 × 10^−5 M (not in rat)) was “inotropic” and the “platelet function via adenosine diphosphate or thromboxane A mechanisms” value [3] was “did not affect”. The “antiplatelet aggregation potency relative to indomethacin” value ([3]; arachidonic acid as substrate, listed as 3-hydroxy-1-(4-hydroxy-3-methoxyphenyl)dodecane) was “three time more potent than the indomethacin reference compound”.
For `CCCCCCCC(O)CC(=O)c1ccc(O)c(OC)c1` (stereo not shown) [3-hydroxy-1-(4-hydroxy-3-methoxyphenyl)decan-1-one], the “effect on left atrium rat” value (left atrium rat) was “no change”, the “Peak [Ca^2+]i (Average ± SD)” value ([2]; 10 μM applied for 1 min, 2 mM Ca^2+) was 0 nM and the “effect on diaphragm rat” value (diaphragm rat) was “no effect”. The “effect on rate of depolarization, amplitude and duration of action potential (50% and 90%)” value (cardiac Purkinje fibres; listed as 3-hydroxy-1-(4-hydroxy-3-methoxyphenyl)decanone) was “only a small effect”, the “effect on rate of depolarization, amplitude and duration of action potential (50% and 90%)” value (cardiac Purkinje fibres; listed as 3.92) was “insignificant effect” and the “FORCE OF CONTRACT^n (inotropic activity), result in words” value (guinea pig atria; assayed to a maximum of 50 μM) was “negative inotropic activity”. For the same compound, the “HEART RATE (chronotropic activity), result in words” value (guinea pig atria; assayed to a maximum of 50 μM) was “negative chronotropic activity”, the “effect on isoprenaline response, left atrium guinea pig” value (left atrium guinea pig; up to 30 μM) was “no effect” and the “effect on vas deferens rat” value (vas deferens rat) was “no effect”.
For `COc1cc([C@@H]2c3cc4c(cc3[C@H](O)[C@H]3COC(=O)[C@H]23)OCO4)cc(OC)c1OC` [podophyllotoxin, reference compound], the “LC50 determined by Meyer et al. (1982)” value [4] is given as “(2.4) μg/ml”, the LC50 [1] is given as 1.6 µg/mL and the LC50 ([1]; read-out: LC50) is given as 3.8 µM.
